Results from patent publication US20220105061A1, “COMPOSITIONS AND METHODS FOR TREATING RESPIRATORY INSUFFICIENCY” (The Regents of the University of California, priority 2019, published 2022).
Entries after “also recorded” stand apart in the source; their conditions may differ.

Test system: Serpinh1 Prx1-cre conditional KO mice
Assay: Prenatal 4-PBA treatment of pregnant females in the Serpinh1 Prx1-cre conditional KO (Hsp47-Prx1) lethal osteogenesis imperfecta mouse model
Type: in vivo
Conditions: for perinatal lethality due to respiratory insufficiency: Hsp47-Prx1 model
Source text: Mutations in SERPINH1 (HSP47) cause osteogenesis imperfecta (OI). Patients with mutations in these genes are severely affected by bone fragility and pulmonary dysfunction. Serpinh1 Prx1-cre conditional KO mice were generated. These animals die immediately after birth due to respiratory insufficiency. The Prx1 gene is expressed in lungs' and limbs' mesenchymal lineages, causing phenotypes in both the pulmonary and skeletal system. Right after birth, all affected animals become cyanotic and die.
Animals were treated with 4-PBA. At least 12 pregnant females (SerpinH1−/− crossed with males Serpinh1+/−Prx1 carriers), who were expected to give birth to 25% affected pups (Serpinh1−/−Prx1 positive) were treated with 1 gr/Kg/day of 4-PBA in drinking water since the gestational age of E14 until birth.
Respiratory function was analyzed in treated vs. control animals by cyanotic observations, X-rays, lung floatability test, whole body oxymetry and histology. Multiple dosages were tested: 1, 2 and 5 gr/Kg/day, 1 gr/Kg/day being the minimum dosage to obtain the effect in 100% of individuals. 5 gr/Kg/day was discarded as 2 of 12 treated pups in two independent litters died without presenting the phenotype and showing hematomas. Other pregnancy stages were also tested starting the treatment from E10 to E17.
4-PBA treatment rescue perinatal lethality due to respiratory insufficiency in Hsp47-Prx1 model. A. X-Rays show a dark spot corresponding with air in the lungs in healthy animals (red arrows). […] B. Histological architecture is collapse in mutants (B′) but rescued in 4-PBA treated animals (B″). C. Mutants show cyanotic aspect at birth (C′). This is also rescued in 4-PBA treated animals (C″). D. Oxygen levels are rescued in treated mutants as observed by oxymeter measures right after birth.

## O=C(O)CCCc1ccccc1 [4-PBA, 4-phenylbutyric acid]
1 gr/Kg/day
  individuals in which the effect was obtained: 100%
1 gr/Kg/day in drinking water to pregnant females, E14 until birth, untreated affected pups die immediately after birth
  survival of pups with the affected genotype born from treated mothers: around 24 hours
5 gr/Kg/day, two independent litters, dosage discarded
  treated pups that died without presenting the phenotype and showing hematomas: 2 of 12
Prenatal treatment
  perinatal lethality due to respiratory insufficiency: rescue
Prenatal treatment, listed as 4-phenylbutyric
  perinatal lethality due to respiratory insufficiency: rescues
Collapsed in mutants, FIG. 1B
  lung histological architecture: rescued
Dosages tested: 1, 2 and 5 gr/Kg/day
  minimum dosage to obtain the effect in 100% of individuals: 1 gr/Kg/day
mouse, in vivo
  embryo viability: possible decreased embryo viability
  unproductive pregnancies of 4 plugged females: two
Prenatal treatment, cyanotic observations at birth
  cyanosis of treated affected animals: did not become cyanotic; also recorded: rescued
Prenatal treatment, oxymeter measures right after birth
  oxygen levels (whole body oxymetry): normal levels of oxygen; also recorded: rescued
Treated mutants, FIG. 1A
  air in the lungs on X-rays: show air in the lungs
Treatments performed between E13 to E17
  lung function improvement: observed similarly
